Literature values, collected in US20050084547A1, “Natural product based apoptosis inducers” (PhytoMyco Research Corporation, priority 2003, published 2005).

Test system: human leukemia HL-60 cells
Settings: microscopy, flow cytometry, DNA fragmentation assay

For `CC(=O)OC(C1CO1)C(OC(C)=O)C1CO1` (stereo not shown) [DADAG, diacetyldianhydrogalactitol], the apoptosis induction is listed as “induced apoptosis in the HL-60 cells”.
